Source: article PMC10096453, “One-Pot Synthesis and Evaluation of Antioxidative Stress and Anticancer Properties of an Active Chromone Derivative” (Molecules, 2023)

Tested on: HeLa cells
Assay: Apoptosis, Annexin V & Dead Cell flow cytometry
Assay type: cell-based
Settings: IC50 concentration, 24 h
Procedure: Examining apoptosis induction by some samples was confirmed by the determination of annexin V (p ≤ 0.05) using the IC50 for 2b, 2e, 2f, 2j, and quercetin in the HeLa cell line (Figure 5a).
HeLa cells were seeded overnight at 1 × 10^5 cells/1.5 mL/well in a 6-well plate. […] The cells were […] and washed with PBS. The collected cells were diluted with serum-free medium to a suitable volume. The 100 μL of cell suspension was added to 100 μL of Muse^TM Annexin V & Dead Cell reagent and incubated for 20 min at room temperature. Cells were analyzed by flow cytometry (Guava Muse Cell Analyzer, Luminex, Austin, TX USA) with Guava suite software 3.4.

SMILES: O=C(c1ccccc1)c1c(-c2ccccc2)oc2c(O)c(O)ccc2c1=O [2f, 3-Benzoyl-7,8-dihydroxy-2-phenyl-4H-chromen-4-one]
- Apoptosis induction: induced apoptosis in tumor cells
- Change in dead phase compared to the control: +5.8%
- Change in early apoptosis phase compared to the control: +6.3%
- Change in late apoptosis phase compared to the control: +1.2%
- Change in live phase compared to the control: −12.1%
